Results on 18 molecules are retold here after US20210259251A1, “[…] PREVENT AND CONTROL FUNGAL PATHOGENS” (priority 2018, published 2021).

Entries after “also recorded” stand apart in the source; their conditions may differ. Like-named read-outs stand apart in the source and are kept apart here. A value given as a limit tells only on which side of the number the result lay.

One experiment deals with Botrytis cinerea. The experiment is described as follows: In vitro fungal bioassay, fungitoxic activity. The following applies: for fungitoxic activity against Botrytis cinerea (in words): in vitro, dose range between 10 and 1500 μM; for ED95 Botrytis cinerea: effect in 95% of the population, maximal concentration 1500 μM.
A further experiment concerns Fusarium oxysporum. The experiment can be described thus: In vitro fungal bioassay, fungitoxic activity. The following applies: maximal concentration 1500 μM; for fungitoxic activity against Fusarium oxysporum (in words): in vitro; for ED95 F. oxysporum: Table 2, effect in 95% of the population.
In another experiment the test system is Septoria tritici. The experiment can be described thus: In vitro antifungal assay (mycelial growth on PDA). The following applies: Zymoseptoria tritici, read-out: ED50.
In another experiment the test system is Colletotrichum dematium. The experiment can be described thus: In vitro antifungal assay (mycelial growth on PDA). The following applies: read-out: ED50.
The next experiment concerns Serpula lacrymans. The experiment can be described thus: In vitro antifungal assay (mycelial growth on PDA). Particulars: read-out: ED50.
A further experiment concerns Hemenoscyphus fraxineus. The experiment is described as follows: In vitro antifungal assay (mycelial growth on PDA). The following applies: read-out: ED50.
A further experiment deals with Alternaria radicina. The experiment is described as follows: Fungitoxic activity of combined isothiocyanates, 48 well plates, synergy (CompuSyn).
The subject of experiment [1] is Fusarium gramineum. The description is as above.
Method: (§1) Applicants examined fungitoxic activities of combined isothiocyanates in three necrotrophic fungal species, i.e. Alternaria radicina (class: Dothideomycetes; order: Pleosporales; host: carrot), Fusarium gramineum (class: Sordariomycetes; order: Hypocreales; host: cereals) and Plectosphaerella cucumerina (class: Sordariomycetes; order: Glomerellales; host: tomato and cucurbits).
(§2) Fungitoxic activities were tested in 48 well tissue culture plates. […] Synergistic fungitoxic activities was then estimated as in Chou (2006), and the CompuSyn software (www.combosyn.com) was used to determine the Combination Index (CI) for combinations of two molecules and the presence of synergism (CI<1).
Experiment [2] deals with Plectosphaerella cucumerina. The experiment is described as above.
Method: as §1, §2
The test system of a further experiment is Phytophthora cactorum. The experiment can be described thus: microbe, parasite or virus in culture. The experiment is classed as cell-based.
The test system of experiment [3] is Fusarium gramineum. The experiment can be described thus: microbe, parasite or virus in culture. The class given is cell-based. The following applies: for EC50: read-out: ED50 F. gramineum.
A further experiment deals with Phytophthora infestans. The experiment is described as follows: microbe, parasite or virus in culture. The class given is cell-based. The following applies: read-out: ED50 P. infestans.
A further experiment has as its system Guignardia bidwellii. The experiment can be described thus: In vitro fungal bioassay, fungitoxic activity. The experiment is classed as cell-based. Particulars: Phyllosticta ampelicida; Table 5; unit from the concentration series of the method; read-out: ED50 G. bidwellii.
Where [4] appears, read: 168 h, read-out: EC50 Molecule 2.
[5] abbreviates: Table 3, maximal dosage 1500 μM.
Where [6] appears, read: 168 h, read-out: EC50 Molecule 2, Alternaria radicina, second molecule alone, range 10-850 μM, 850 = no fungitoxic activity in the tested range.
The mark [7] stands for this setting: read-out: EC50 Molecule 1, Alternaria radicina, first molecule alone, range 10-850 μM, 850 = no fungitoxic activity in the tested range.
The mark [8] stands for this setting: 168 h, read-out: EC50 Molecule 1.
[9] abbreviates: Fusarium, Table 5, unit from the concentration series of the method.

Method for Alternaria radicina: as §1, §2

In the case of `CS(=O)(=O)CCCCCCCN=C=S` [7-methylsulfonyl-heptyl isothiocyanate], the “fungitoxic activity against Botrytis cinerea (in words)” value with Botrytis cinerea is “no fungitoxic activity; also recorded: non-active”. Besides, the “fungitoxic activity against Fusarium oxysporum (in words)” value with Fusarium oxysporum is listed as “non-active”. Further, the EC50 in the experiment on Septoria tritici was 350 µM; in the experiment with Colletotrichum dematium, 650 µM; with Serpula lacrymans, 150 µM; with Hemenoscyphus fraxineus it was 770 µM.

`C[S+]([O-])CCCN=C=S` (centres unmarked) [Molecule 3MSOH, 1-Isothiocyanato-3-(methylsulfinyl)-propane]: the EC50 came to 786 µM in the experiment with Alternaria radicina (setting [4]), 525 µM with Fusarium gramineum [1] (setting [4]), 525 µM in the experiment on Fusarium gramineum [1] (read-out: EC50 Molecule 2) and 627 µM in [2] (setting [4]).

For `CS(=O)(=O)CCCN=C=S` [Molecule 3MSOOH, 1-Isothiocyanato-3-(methylsulfonyl)-propane], the EC50 with Alternaria radicina (setting [4]) turned out to be 469 µM; in the experiment with Fusarium gramineum [1] (setting [4]), 387 µM; in the experiment with Fusarium gramineum [1] (read-out: EC50 Molecule 2) it was 387 µM; in experiment [2] (setting [4]), 536 µM.

For the molecule `C[S+]([O-])CCCCN=C=S` (centres unmarked) [Molecule 4MSOH, 1-Isothiocyanato-4-(methylsulfinyl)-butane], the “ED50 P. cactorum” value in the experiment on Phytophthora cactorum was less than 1500 µM. Also, in the experiment on Fusarium gramineum [3] (Fusarium), the EC50 was 628 µM.

Regarding `C[S+]([O-])CCCCCN=C=S` (centres unmarked) [Molecule 5MSOH, 1-isothiocyanato-5-(methylsulfinyl)-pentane], in the experiment on Botrytis cinerea (Table 4), the “ED95 Botrytis cinerea” value was less than 1500 µM. In the experiment on Botrytis cinerea, the “fungitoxic activity against Botrytis cinerea (in words)” value is recorded as “none of these single compounds revealed fungitoxic effect”.

In the case of `CS(=O)(=O)CCCCCN=C=S` [Molecule 5MSOOH, 1-Isothiocyanato-5-(methylsulfonyl)-pentane], in the experiment with Botrytis cinerea (Table 4), the “ED95 Botrytis cinerea” value is less than 1500 µM. For the same molecule, the “fungitoxic activity against Botrytis cinerea (in words)” value in the experiment with Botrytis cinerea was “none of these single compounds revealed fungitoxic effect”.

Take `CS(=O)(=O)CCCCCCN=C=S` [Molecule 6MSOOH, 1-Isothiocyanato-6-(methylsulfonyl)-hexane]: the “ED50 P. cactorum” value with Phytophthora cactorum (setting [5]) was less than 1500 µM. The EC50 in the experiment on Fusarium gramineum [3] (setting [5]) is listed as less than 1500 µM. The “fungistatic effect on Fusarium gramineum (in words)” value in the experiment with Fusarium gramineum [3] (in the dosage of 1500 μM) was “not fungistatic”.

In the case of `C[S+]([O-])CCCCCCCN=C=S` (centres unmarked) [Molecule 7MSOH, 1-Isothiocyanato-7-(methylsulfinyl)-heptane], the EC50 in the experiment on Alternaria radicina (setting [6]) was found to be 537 µM; in the experiment with Fusarium gramineum [1] (setting [4]), 586 µM; in the experiment on Fusarium gramineum [1] (read-out: EC50 Molecule 2) it was 586 µM; in experiment [2] (setting [4]) it was 337 µM.

As for `C[S+]([O-])CCCCc1cccc(CN=C=S)c1` (centres unmarked) [Molecule 8ASOH, 1-(isothiocyanatomethyl)-3-(4-(methylsulfinyl)butyl)benzene], the EC50 in the experiment with Alternaria radicina (setting [7]) was 723 µM.

Take `CS(=O)(=O)CCCCc1cccc(CN=C=S)c1` [Molecule 8ASOOH, 1-(isothiocyanatomethyl)-3-(4-(methylsulfonyl)butyl)benzene]: the EC50 with Alternaria radicina (setting [6]) is more than 850 µM.

For `C[S+]([O-])CCCCC/C=C/CN=C=S` (centres unmarked) [Molecule 8CSOH, (E)-1-isothiocyanato-8-(methylsulfinyl)oct-2-ene], the EC50 with Alternaria radicina (setting [7]) is 472 µM; with Alternaria radicina (read-out: EC50 Molecule 1, first molecule alone, range 10-850 μM, 850 = no fungitoxic activity in the tested range), 704 µM; with Fusarium gramineum [1] (setting [8]) it was more than 850 µM; in the experiment on Fusarium gramineum [1] (read-out: EC50 Molecule 1), more than 850 µM; in experiment [2] (read-out: EC50 Molecule 1) it was 273 µM.

For the molecule `CC[S+]([O-])CCCCCCCCN=C=S` (centres unmarked) [Molecule 8ESOH, 1-(ethylsulfinyl)-8-isothiocyanatooctane], the figures for the EC50 in the experiment with Alternaria radicina (setting [6]), with Fusarium gramineum [1] (setting [8]) and with Fusarium gramineum [1] (read-out: EC50 Molecule 1) were 472 µM, 533 µM and 533 µM, respectively.

Take `CCS(=O)(=O)CCCCCCCCN=C=S` [Molecule 8ESOOH, 1-(ethylsulfonyl)-8-isothiocyanatooctane]: the EC50 with Alternaria radicina (setting [6]) is more than 850 µM.

Regarding `C[S+]([O-])CCCCCCCCN=C=S` (centres unmarked) [Molecule 8MSOH, 1-Isothiocyanato-8-(methylsulfinyl)-octane], the EC50 came out at 292 µM in the experiment on Fusarium gramineum [3] (setting [9]); 26.4 µM in the experiment on Phytophthora infestans; 30.4 µM in the experiment with Guignardia bidwellii; 317 µM with Fusarium gramineum [1] (setting [8]); 317 µM with Fusarium gramineum [1] (setting [4]); 317 µM with Fusarium gramineum [1] (read-out: EC50 Molecule 1). Moreover, the “ED95 Botrytis cinerea” value with Botrytis cinerea (Table 2) and with Botrytis cinerea (Table 4) was less than 1500 µM throughout. Moreover, the “fungitoxic activity against Botrytis cinerea (in words)” value in the experiment with Botrytis cinerea is given as “no fungitoxic effect; also recorded: none of these single compounds revealed fungitoxic effect”. For the same molecule, the “ED95 F. oxysporum” value in the experiment on Fusarium oxysporum is less than 1500 µM. In the experiment with Fusarium oxysporum, the “fungitoxic activity against Fusarium oxysporum (in words)” value is on record as “no fungitoxic effect”.

For `CS(=O)(=O)CCCCCCCCN=C=S` [Molecule 8MSOOH, 1-Isothiocyanato-8-(methylsulfonyl)-octane], the EC50 was 628 µM in the experiment with Phytophthora cactorum (Phytophthora cactorum, read-out: ED50 P. cactorum); 464 µM with Fusarium gramineum [3] (Fusarium, Table 3, maximal dosage 1500 μM); 22.2 µM in the experiment with Fusarium gramineum [3] (setting [9]); 350 µM with Phytophthora infestans; 464 µM in the experiment on Guignardia bidwellii; more than 850 µM with Fusarium gramineum [1] (setting [8]). In addition, the EC50 in experiment [2] (read-out: EC50 Molecule 1) is more than 850 µM. Also, the “ED95 Botrytis cinerea” value in the experiment with Botrytis cinerea (Table 2) and in the experiment on Botrytis cinerea (Table 4) was less than 1500 µM each time. The “fungitoxic activity against Botrytis cinerea (in words)” value with Botrytis cinerea was “no fungitoxic effect; also recorded: none of these single compounds revealed fungitoxic effect”. The “ED95 F. oxysporum” value in the experiment on Fusarium oxysporum was less than 1500 µM. The “fungitoxic activity against Fusarium oxysporum (in words)” value in the experiment with Fusarium oxysporum is listed as “no fungitoxic effect”.

As to `CS(=O)(=O)CCCCCCCCC#N` [Molecule 8MSOON, 8-(methylsulfonyl)octylnitrile], the “ED95 Botrytis cinerea” value with Botrytis cinerea (Table 2) is less than 1500 µM. Besides, the “ED95 F. oxysporum” value in the experiment on Fusarium oxysporum is less than 1500 µM.

In the case of `C[S+]([O-])CCCCCCCCCN=C=S` (centres unmarked) [Molecule 9MSOH, 1-Isothiocyanato-9-(methylsulfinyl)-nonane], the EC50 with Fusarium gramineum [1] (setting [4]) is 553 µM.

Turning to `CS(=O)(=O)CCCCCCCCCN=C=S` [Molecule 9MSOOH, 1-Isothiocyanato-9-(methylsulfonyl)-nonane], the EC50 in the experiment with Fusarium gramineum [1] (setting [4]) is more than 850 µM.
